Measured values taken from paper PMC5623904, “Structural investigation of nucleophosmin interaction with the tumor suppressor Fbw7γ” (Oncogenesis, 2017).

Target: T1, Nter-NPM1 (residues 16-123) (Homo sapiens, UniProt P06748)
T1 construct: inferred from pET28a NdeI/BamHI cloning and HisTrap purification) (N); made in house; host or cells: Escherichia coli BL21(DE3)
Assay: Equilibrium fluorescence titration of dansylated peptide with Nter-NPM1
Assay type: binding
Details: wild-type Nter-NPM1, N-terminally dansylated peptide 5 μM, protein 0 to 200/400 μM, sodium phosphate 20 mM pH 7.2, 25 °C, fluorescence ex 330 nm, triplicate, ±s.d., Ni = no interaction
Experimental: All experiments were performed at 25 °C in sodium phosphate buffer 20 mM pH 7.2, or in sodium phosphate buffer 20 mM plus 100 mM NaCl pH 7.2 (which sets ionic strength to 150 mM), using a FluoroMax-4 spectrofluorometer (Jobin Yvon, Edison, NJ, USA), equipped with a water bath apparatus. Fbw7γ and CENP-W peptides, functionalized with a dansyl (5-dimetilamminonaftalen-1-sulphonyl) group at their N terminus, were purchased from JPT (Germany). Tat peptide was synthesized employing the solid phase method following standard Fmoc strategies and labeled with dansyl fluorophore at its N terminus. Crude product was purified by RP-HPLC applying a linear gradient of 0.1% TFA CH3CN in 0.1% TFA water from 5% to 65% over 12 min using a semi-preparative 2.2 × 5 cm C18 column at a flow rate of 20 ml/min. Purity and identity were confirmed by LC–MS analysis.
Titration experiments were conducted with an excitation wavelength of 330 nm while the fluorescence emission spectra were collected in the range between 350 and 650 nm. Titrations were performed at constant peptide concentration (5 μM) and varying protein concentrations (from 0 to 200/400 μM). Titrations were performed in triplicate and data, analyzed with the Graphpad Prism software (https://www.graphpad.com/scientific-software/prism/), were reported as dissociation constant±s.d.
Equilibrium binding curves were fitted to the standard quadratic equation: […]
where F is the observed fluorescence signal, n and [A]0 are the total concentration of non-varied and varied species, respectively, and KD is the equilibrium dissociation constant. B and C are constants taking into account the total fluorescence change and fluorescence at [A]0=0, respectively, and k is a term describing the slope of the curve at high protein concentration. Whenever possible, under pseudo first-order conditions, the equation 1 was simplified to: […]

T1 sequence (P06748 16-123): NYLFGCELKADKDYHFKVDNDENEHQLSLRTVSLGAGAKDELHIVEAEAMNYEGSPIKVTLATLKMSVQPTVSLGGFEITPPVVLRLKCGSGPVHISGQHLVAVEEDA

## VLSQK [Unreleted short, reference compound]
  Nter-NPM1 KD: Ni
Listed as unrelated short
  Nter-NPM1 KD: No interaction
